According to ChEMBL document CHEMBL1201862, “PubChem BioAssay data set” (2004):
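1) Cells in 96-well plates. 2) Compound, 48 h, 5 concentrations. 3) Linear interpolation between surrounding doses. 4) Unreached endpoint = highest concentration. At the GI50, growth is halved.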 The source made the active and inactive calls. Rule as the data show it: active = GI50 up to about 1.1 µM and inactive = higher.

Legend:
Experiment in all cases: NCI tumour cell line growth inhibition, 48 h
RXF 393 = system: RXF 393
SNB-75 = system: SNB-75
ACHN = system: ACHN
HT-29 = system: HT-29
SF-268 = system: SF-268
M14 = system: M14
SF-295 = system: SF-295
SW-620 = system: SW-620
A549 = system: A549
TK-10 = system: TK-10
K562 = system: K562
RPMI-8226 = system: RPMI-8226
COLO 205 = system: COLO 205
CCRF-CEM = system: CCRF-CEM
HOP-62 = system: HOP-62
LOX IMVI = system: LOX IMVI
NCI-H226 = system: NCI-H226
HCT-116 = system: HCT-116

Compound	GI50 (RXF 393)	GI50 (SNB-75)	GI50 (ACHN)	GI50 (HT-29)	GI50 (SF-268)	GI50 (M14)	GI50 (SF-295)	GI50 (SW-620)	GI50 (A549)	GI50 (TK-10)	GI50 (K562)	GI50 (RPMI-8226)	GI50 (COLO 205)	GI50 (CCRF-CEM)	GI50 (HOP-62)	GI50 (LOX IMVI)	GI50 (NCI-H226)	GI50 (HCT-116)
O=C1C2C(C(=O)N1c1ccccc1)C1(c3ccccc3)OC2(c2ccccc2)c2ccccc21 (centres undefined)	> 100 µM (inactive)	12.8 µM (inactive)	> 100 µM (inactive)	> 100 µM (inactive)	> 100 µM (inactive)	> 100 µM (inactive)	> 100 µM (inactive)	> 100 µM (inactive)	> 100 µM (inactive)	> 100 µM (inactive)	> 100 µM (inactive)	> 100 µM (inactive)	> 100 µM (inactive)	> 100 µM (inactive)	> 100 µM (inactive)	> 100 µM (inactive)		
CN(C)C(=S)OC(Cn1cncn1)c1ccc(Cl)cc1Cl (centres undefined)	> 100 µM (inactive)	> 100 µM (inactive)	> 100 µM (inactive)	> 100 µM (inactive)	> 100 µM (inactive)	> 100 µM (inactive)	> 100 µM (inactive)	> 100 µM (inactive)	> 100 µM (inactive)	> 100 µM (inactive)	> 100 µM (inactive)	> 100 µM (inactive)	> 100 µM (inactive)		> 100 µM (inactive)	> 100 µM (inactive)	> 100 µM (inactive)	> 100 µM (inactive)
CN(C(=O)C12C3C4C1C1C2C3C41C(=O)C(C)(C)C)C(C)(C)C (centres undefined)		76 µM (inactive)	> 100 µM (inactive)	> 100 µM (inactive)	> 100 µM (inactive)	> 100 µM (inactive)	> 100 µM (inactive)	> 100 µM (inactive)	> 100 µM (inactive)	> 100 µM (inactive)	> 100 µM (inactive)	> 100 µM (inactive)	> 100 µM (inactive)	> 100 µM (inactive)	> 100 µM (inactive)	> 100 µM (inactive)		> 100 µM (inactive)
O=S(O)CCCCSSCCCCS(=O)(=O)S	43.3 µM (inactive)	10.9 µM (inactive)	72.6 µM (inactive)	38.6 µM (inactive)	35.6 µM (inactive)	15.7 µM (inactive)	35.5 µM (inactive)	37.7 µM (inactive)	40.7 µM (inactive)	42.6 µM (inactive)	32.1 µM (inactive)		48.5 µM (inactive)	13.8 µM (inactive)	> 100 µM (inactive)	27.4 µM (inactive)		> 100 µM (inactive)
COc1ccc2cc3[n+](cc2c1OC)CCc1cc2c(cc1-3)OCO2 [BERBERINE CHLORIDE]	68.5 µM (inactive)	36.5 µM (inactive)	> 100 µM (inactive)	31 µM (inactive)	5.2 µM (inactive)	22.8 µM (inactive)		40.6 µM (inactive)		> 100 µM (inactive)	16.6 µM (inactive)			13.2 µM (inactive)		77.1 µM (inactive)		
Cc1ccc(S(=O)(=O)N/N=C/c2oc(-c3ccccc3Cl)c(-c3ccccc3Cl)c2[N+](=O)[O-])cc1	13.8 µM (inactive)		13.9 µM (inactive)	31.2 µM (inactive)	36.1 µM (inactive)	31 µM (inactive)	> 100 µM (inactive)	21 µM (inactive)	24.2 µM (inactive)	59 µM (inactive)	12.9 µM (inactive)	3.73 µM (inactive)	28.1 µM (inactive)	7.24 µM (inactive)	17.6 µM (inactive)			6.37 µM (inactive)
CCCCCCC1=NOC(C(c2cc[nH]c2)N(C)[C@H](C(=O)OC)C(C)C)C1 (some centres undefined)	52.7 µM (inactive)	55.6 µM (inactive)	34.4 µM (inactive)	34 µM (inactive)	> 100 µM (inactive)	51.8 µM (inactive)	47.1 µM (inactive)	26.6 µM (inactive)	62.5 µM (inactive)	35.4 µM (inactive)	39.2 µM (inactive)		15.3 µM (inactive)	16.7 µM (inactive)	> 100 µM (inactive)	26.1 µM (inactive)	51.1 µM (inactive)	34.4 µM (inactive)
COC(=O)C12OCC34C(CC5C(C)C6=CC(=O)OC6=CC5(C)C3C(O)C1O)OC(=O)C(O)C24 (centres undefined)	0.493 µM (active)	0.399 µM (active)	0.895 µM (active)	0.217 µM (active)	0.504 µM (active)		1.53 µM (inactive)	0.497 µM (active)	1.1 µM (active)	1.42 µM (inactive)	0.205 µM (active)	0.0809 µM (active)	6.43 µM (inactive)		0.78 µM (active)	0.157 µM (active)	0.293 µM (active)	0.306 µM (active)
COC(=O)C(=O)C(C(=O)C(=O)Nc1cccc(C(C)=O)c1)c1nc2ccccc2nc1O (centres undefined)	> 100 µM (inactive)	> 100 µM (inactive)	> 100 µM (inactive)	> 100 µM (inactive)	> 100 µM (inactive)	> 100 µM (inactive)	> 100 µM (inactive)	> 100 µM (inactive)	> 100 µM (inactive)	> 100 µM (inactive)	> 100 µM (inactive)		> 100 µM (inactive)	> 100 µM (inactive)		> 100 µM (inactive)	> 100 µM (inactive)	
